Point of comparison: `CC(C)(C)OC(=O)Nc1ccc(NC(=O)OC(C)(C)C)c(Br)c1`, melting point 130 °C. Against it:
- COc1cc(C(=O)NS(=O)(=O)c2ccccc2C)ccc1Cc1cccc2ccc(C(=O)NCC(C)C)cc12 — higher, 212 to 214 °C
- CC(C)c1cccc(C(C)C)c1NC(=O)C(NCc1ccccc1)c1ccccc1 (stereo not given) — higher, 134 to 137 °C
- Cc1cc2c(cc1Cl)C=C(C(=O)O)C(C(F)(F)F)S2 (stereo not given) — higher, 240 to 242 °C
- Nc1ccccc1Oc1ccccc1Cl — lower, 44 to 45 °C
- COc1ccccc1N1CCN(CCn2cnc3c(c2=O)CN(Cc2ccccc2)CC3)CC1 — higher, 200 °C
- CC(c1ccc2c(c1)Sc1ccccc1CC2)N(O)C(N)=O (stereo not given) — higher, 166 to 168 °C
- CC1=NN(c2cc(Cl)c(Sc3ccc(Cl)cc3)c(Cl)c2)C(=O)NC1 — higher, 258 to 259 °C
- NC1(CCC(O)(P(=O)(O)O)P(=O)(O)O)CCCCC1 — higher, 143 °C
- CCOC(=O)c1[nH]c(CC)c(CC)c1C — lower, 71 to 73 °C
- C[C@H](NC(=O)c1ccc(N)cc1F)C(=O)O — higher, 244 to 248 °C
- CCCC(=O)c1c[nH]c2c(COC(=O)c3ccccc3)cccc2c1=O — lower, 115 to 117 °C
- CCC1(C)OC(c2ccc(S(C)(=O)=O)cc2)=C(c2cc(F)cc(F)c2)C1=O (stereo not given) — lower, 122 to 124 °C
- Cc1ccc(NC(=O)C(C)C)c(-c2ccnc(SC(F)(F)F)n2)c1 — lower, 114 to 116 °C
- CCOc1ccc(C)c(NCc2ccccc2)c1 — lower, 69 to 71 °C
- CC1(c2nc(-c3ccc(Cl)cc3)c(CCC(=O)O)o2)CCCCC1 — higher, 138 to 139 °C
- CCCCCC(=O)Nc1ccc2ccn(CCCCCCCC(=O)OC)c2c1 — lower, 61 to 63 °C
- CNc1nc(-c2cc(C)c(O)c(C)c2)cc2ccc(CN3CCN(C)CC3)cc12 — higher, 264 to 266 °C
- CCn1cc(C(=O)O)c(=O)cc1-c1ccc(OC)c(OC)c1 — higher, 232 to 234 °C
- O=c1oc2cc(O)c(O)c([N+](=O)[O-])c2c2c1CCCC2 — higher, 238 to 255 °C
- CCCCn1nc(C(C)C)c(C(=O)O)c1Cc1ccc(-c2ccccc2-c2nnn[nH]2)cc1 — lower, 103 to 108 °C
- CN(C)CCNC(=O)N1CCC(S(=O)(=O)c2ccc(Cl)cc2)C1 (stereo not given) — higher, 131 to 132 °C
- Cc1ccc(C)c(OCCO)c1 — lower, 45 to 48 °C
- Cc1nc(-c2ccccc2Cl)n2c1nnc1ccc(N3CCCCC3)cc12 — higher, 207 to 210 °C
- CC(C)(O)[C@H](N)c1ccccc1 — lower, 49 °C
- COc1cc(OC)cc(-c2ncoc2-c2ccc(OC(F)(F)F)c(O)c2)c1 — higher, 192 to 194 °C
- CC(=O)c1cccc2cc3c(C(C)=O)cccc3cc12 — higher, 185 to 205 °C
- COc1cc(C=CC(=O)Nc2cnc3ccc(C)cc3c2-c2ccccc2C)cc(OC)c1OC(C)=O — higher, 242 to 243 °C
- Oc1ccc(-c2csc(S)n2)cc1O — higher, 236 °C
- O=C(O)c1cccc2ccc(CBr)cc12 — higher, 210 to 211 °C
- CSc1nn2c(N)cc(C3CC3)nc2c1S(=O)(=O)c1ccccc1 — higher, > 230 °C
- COc1cc(Cc2cnc(NCCCCc3ncccc3OC)[nH]c2=O)ccn1 — lower, 72 to 74 °C
- Cc1oc(-c2ccccc2)nc1COc1ccc(CCCBr)cc1 — lower, 80 to 81 °C
- CCCCCCCCc1ccc(C=CC(=O)CC(=O)OCC)cc1 — lower, 57 °C
- CCOP(=O)(OCC)C(OC)c1ccc(N)cc1 (stereo not given) — lower, 100 to 101 °C
- Cc1noc(C)c1COc1ccc(-c2cc(O)c(SCCc3ccccc3)c(=O)o2)cc1 — higher, 152 to 154 °C
- CCc1ccc2[nH]c(C(=O)O)cc2c1 — higher, 173 °C
- CCN1CCN(c2cc(-c3ccc(O)cc3)c3c(n2)CCCCCC3)CC1 — higher, 250 to 253 °C
- CCOC(=O)N1CCC(N(Cc2ccccc2)C(=S)Nc2ccccc2[N+](=O)[O-])CC1 — higher, 140 °C
- CCCCC(Cc1ccc(OCCNC(=O)c2ccc(-c3cccc(O)c3)cc2)cc1)C(=O)O (stereo not given) — lower, 98 to 100 °C
- NN=C1C(=O)Nc2cccc(Cl)c21 — higher, 235 to 236 °C
- CCCn1nc2c(N)nc3ccccc3c2c1NCC — higher, 193 to 194 °C
- Cn1cc(-c2cnc3[nH]c(=O)n(CC4CCOCC4)c3n2)cn1 — higher, 224 to 226 °C
- COc1ccc(CCC(O)=S)cc1[N+](=O)[O-] — not separable, 130 to 132 °C
- CCC(=O)c1cccc(S(N)(=O)=O)c1 — higher, 152 to 153 °C
- C#CCON=C(C(=O)OC)c1nsc(NC(=O)OC(C)(C)C)n1 — lower, 72 to 75 °C
- O=C(OCCc1ccccc1)c1ccc2cc(O)c(O)cc2c1 — higher, 175 to 176 °C
- CC(C)Oc1cc(-n2c(=O)[nH]c(C(F)(F)F)c(F)c2=O)c(F)cc1Cl — higher, 133 to 135 °C
- CS(=O)(=O)Nc1ccc(CCc2n[nH]c3c2c(=O)n(-c2ccccc2)c2ncccc32)cc1 — higher, 284 to 285 °C
- COc1ccc2cc([C@H](C)C(=O)NNC(=O)CCCO)ccc2c1 — higher, 149 to 151 °C
- C=CCOc1nc(N(CC)Cc2cc(Br)ccc2OCc2ccccc2)ccc1C(=O)O — not separable, 129 to 131 °C
- O=C(O)CCCc1cc2nc(Cl)ccc2n1S(=O)(=O)c1ccc2snnc2c1 — higher, 227 °C
- Cn1c(=O)c(-c2ccc(Cl)cc2Cl)cc2c3cc(-c4c[nH]nn4)ccc3n(C)c21 — higher, 274 to 275 °C
- C=CCn1nc(C)c(C(=O)c2ccc(Cl)cc2Cl)c1O — higher, 161 to 163 °C
- Cc1ccc(-c2c(CNC(=O)OC(C)(C)C)c(CC(C)(C)C)nc(C)c2C(=O)O)cc1 — higher, 216 to 217 °C
- CNC(=S)C1=CC2(CCOCC2)Oc2ccc([N+](=O)[O-])cc21 — higher, 223 to 225 °C
- CC1=NC(NC(=O)Nc2cccc(C)c2)C(=O)N(CC(=O)N2CCC(N3CCCCC3)CC2)c2c(C)cccc21 (stereo not given) — higher, 214 to 217 °C
- CCO[C@@H]1C(C(=O)Nc2ccc(Cl)cc2)=C(C)OC(OCC)(OCC)[C@H]1C (relative stereo) — lower, 104 to 106 °C
- CC(C)COC[C@H](CC(C)C)NC(=O)[C@H]1O[C@@H]1C(=O)OC(C)(C)C — lower, 73.5 to 74.5 °C
- Cc1ccc(-c2nsc3[nH]c4ccc(C)cc4c(=O)c23)cc1 — higher, 330 °C
- CC(C)NC(=O)c1nc(-c2cccc(Cl)c2)c(-c2ccc(=O)n(C(C)C)n2)s1 — lower, 105 to 106 °C
- COc1cc(C(F)(F)F)c2[nH]c3c(c2c1)CNCC3 — higher, 140 to 144 °C
- CON(C)CCN1C(=O)c2ccccc2C1=O — not separable, 130 to 132 °C
- CCC(COC)(OC)c1cc(F)cc(OCc2ccccc2)c1 (stereo not given) — lower, 61 to 62 °C
- Cc1csc2c1S(=O)(=O)N=C(NC(C)C)N2 — higher, 152 to 154 °C
- Nc1ccc(CCN2CCC(NC(=O)c3ccccc3)CC2)cc1 — higher, 193 to 195 °C
- O=C(Nc1ccccc1)Nc1cc(Cl)nc(Cl)c1 — higher, 219 to 222 °C
- CSc1nnc2ccc3ccccc3n12 — lower, 115 to 116 °C
- CC(C)c1cc(Br)c(C(C)C)cc1S — lower, 72 to 75 °C
- CC(C)(C)OC(=O)N[C@H]1COc2ccccc2NC1=O — higher, 202 to 203 °C
- CCOc1nn(-c2cc(C(F)(F)F)ccn2)cc1CCCOc1ccccc1CC(=O)O — lower, 121 to 122 °C
- O=C(Cn1ccnc1)c1ccc(CCc2ccccc2)cc1 — higher, 134 to 136 °C
- O=C1Nc2cccc(-c3cccc(Cl)c3)c2/C1=C/c1ccc[nH]1 — higher, 165 to 167 °C
- Cc1ccc(C)c(Oc2oc(-c3ccc(Cl)cc3)nc2CC(=O)O)c1 — higher, 185 °C
- Cc1cc2c(c(C)c1Br)C(=O)C(C)(C)O2 — lower, 63 to 64 °C
- COC(=O)c1ccc(S(C)(=O)=O)c(C=O)c1C — lower, 108 to 110 °C
- CCC=C1Cc2c(c(C)c(C)c3oc(C(=O)O)cc23)C1=O — higher, 301 °C
- CCOc1cccc(-c2ccc(C3CCN(S(=O)(=O)C(C)(C)C(=O)O)CC3)cc2C)n1 — higher, 178 to 179 °C
- CCNc1cccnc1N1CCN(C(=O)c2ccc(C(=O)N(CC)CCO)cc2)CC1 — lower, 106 to 108 °C
- COC(=O)C1CC(C(CC(O)C(CC2CCCCC2)NC(=O)C(Cc2c[nH]cn2)NC(=O)C(Cc2ccccc2)NC(=O)OC(C)(C)C)C(C)C)OC1=O (stereo not given) — lower, 95 °C
- CCCCCCCCC1(CCCCCCCC)c2cc(Cl)ccc2-c2ccc(Cl)cc21 — lower, 50 to 51 °C
- CCCCOc1ccc(S(=O)(=O)C2(C(=O)O)CCN(Cc3ccc(F)cc3)CC2)cc1 — lower, 112 °C
- CCOC(=O)c1cn(-c2cccnc2)nc1Cl — lower, 90 to 93 °C
- COc1ccc(CCCCCCCOc2ccccc2)cc1 — lower, 32 to 34 °C
- CCNC(=O)n1nc(Oc2ncc(C(F)(F)F)cc2Cl)cc1C — lower, 85 to 86 °C
- COc1cc2cc(C(=O)OC(C)(C)C)c(N)cc2cc1O — higher, 262 to 263 °C
- CCN1c2ncc(C=Cc3cccc(C)c3)cc2C(=O)N(C)c2cccnc21 — higher, 207 to 208 °C
- O=c1ccsn1CNc1ccc(Cl)c(Cl)c1 — lower, 120 to 122 °C
- COCC(O)Cn1ncc([N+](=O)[O-])n1 (stereo not given) — lower, 58.2 to 59 °C
- Cc1cc(C)nc(NC(=O)NS(=O)(=O)c2ccccc2C(Cl)Cl)n1 — higher, 195 to 197 °C
- CC(=O)OCC1OC(CCOS(C)(=O)=S)C(OC(C)=O)C(OC(C)=O)C1OC(C)=O (stereo not given) — lower, 115 to 116 °C
- CCOC(=O)N1CCC(n2c(=O)[nH]c3cc(Cl)ccc32)CC1 — higher, 160 °C
- CNN(NC)C(=S)Oc1cc(C)ccc1C(=O)OC — lower, 99.9 to 100 °C
- CSc1nn2c(Cl)cc(C)nc2c1S(=O)(=O)c1ccc(C)cc1 — higher, 197 to 198 °C
- CCc1cc(OC)cc(C(=O)O)c1C(=O)OC — lower, 116 to 118 °C
- O=C(Nc1cccc2[nH]ccc12)c1ccccc1OCCCNC1CCCCC1 — higher, 148 °C
- S=C(Cc1cccnc1)N1CCOCC1 — higher, 158 to 160 °C
- Cc1noc(NS(=O)(=O)c2ccc(-c3ccccn3)s2)c1Br — higher, 186 to 188 °C
- CC(C)(C)OC(=O)c1ncn2c1[C@@H]1CCCN1C(=O)c1c(Br)cccc1-2 — higher, 206 to 208 °C
- Sc1nnc2c3ccccc3cnn12 — higher, 270 to 280 °C
- COc1cc(C(=O)O)ccc1OCc1cccc(OCc2ccc3ccccc3n2)c1 — higher, 188 to 190 °C
- CCOc1ccc(-c2ccc(O)c(C=O)c2)cc1 — lower, 94 to 95 °C
- O=C1Nc2cc(Cl)ccc2Nc2ccsc21 — higher, 255 to 256 °C
- O=C(O)CC1CN(Cc2ccc(Cl)c(Cc3ccccc3)c2Cl)C(=O)N(c2ccc(Br)cc2)C1 (stereo not given) — higher, 174 to 176 °C
- Cc1ncc(C(=S)Nc2c(Cl)cncc2Cl)cc1OC1CCCC1 — higher, 144 to 145 °C

From a melting point compilation (Tetko et al.; mined from patent text by program, amines drawn as free bases though some values may be those of a salt)
